Experimental data as given in patent EP4603105A1, “PHARMACEUTICAL COMPOSITION CONTAINING CYCLIC COMPOUND HAVING SELECTIVE KRAS INHIBITORY EFFECT AGAINST HRAS AND NRAS” (CHUGAI SEIYAKU KABUSHIKI KAISHA, priority 2022, dated 2024).
Where a SMILES comes first, the peptide text is derived from it. Bridges are numbered along the chain shown (N, C = ends). [ ]: non-standard residue; d: D form. hPhe(3-Cl-4-CF3) = N[C@@H](CCc1ccc(C(F)(F)F)c(Cl)c1)C(=O)O; NPrPhe(4-CF3) = CCCN[C@@H](Cc1ccc(C(F)(F)F)cc1)C(=O)O; NMeNva(3-Et) = CCC(CC)[C@H](NC)C(=O)O; NMeD = CN[C@@H](CC(=O)O)C(=O)O; NMeL = CN[C@@H](CC(C)C)C(=O)O; NMeA = CN[C@@H](C)C(=O)O; Aze = O=C(O)[C@@H]1CCN1; Ac4c = NC1(C(=O)O)CCC1; Sar = CNCC(=O)O

What was measured:
[1] = target: GDP-bound NRAS wild-type protein (Homo sapiens, UniProt P01111); assay: Binding to NRAS by surface plasmon resonance (SPR), KD and KD ratio to KRAS
Procedure, shortened: (§1)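 Compound binding is evaluated by SPR single-cycle kinetics, with concentrations added intermittently from low to high for 75 s each. Target surfaces carry GDP-loaded biotinylated Avi-RAS at about 100–300 RU, regenerated after each cycle; temperature 30°C. A 1:1 binding model gives KD.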

HRAS wild-type protein = HRAS wild-type protein (Homo sapiens, UniProt P01112); assay: Binding to HRAS by surface plasmon resonance (SPR), KD and KD ratio to KRAS
Procedure, shortened: as §1

[2] = tested on: human lung cancer strain NCI-H441; format: cell-based
Procedure, shortened: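 Proliferation was scored by […] measured after the reagent was added to cultures kept at 37°C in 5% carbon dioxide.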

[3] = ratio of KD for GDP-bound NRAS wild-type protein to KD for KRAS
[4] = ratio of KD for HRAS wild-type protein to KD for KRAS
[5] = ratio of the KD value with respect to GDP-bound NRAS wild-type protein to the KD value with respect to KRAS
[6] = ratio of the KD value with respect to HRAS wild-type protein to the KD value with respect to KRAS

Sequence of GDP-bound NRAS wild-type protein (P01111 whole entry): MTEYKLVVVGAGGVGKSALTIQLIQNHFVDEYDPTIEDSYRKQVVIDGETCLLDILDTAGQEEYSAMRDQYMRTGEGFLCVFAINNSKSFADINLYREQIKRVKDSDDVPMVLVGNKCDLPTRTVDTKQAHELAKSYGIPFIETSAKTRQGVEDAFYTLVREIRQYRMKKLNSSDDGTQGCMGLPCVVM
Sequence of HRAS wild-type protein (P01112 whole entry): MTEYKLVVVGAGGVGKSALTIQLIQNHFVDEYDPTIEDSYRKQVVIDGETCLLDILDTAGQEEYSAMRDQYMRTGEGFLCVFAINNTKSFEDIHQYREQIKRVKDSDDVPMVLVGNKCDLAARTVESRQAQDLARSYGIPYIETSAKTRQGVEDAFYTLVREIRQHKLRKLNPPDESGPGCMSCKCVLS

| IC50 [2] [nM] | Compound | NRAS /KRAS [1, 3] | HRAS /KRAS (HRAS wild-type protein; [4]) | further results |
| --- | --- | --- | --- | --- |
| 22.3 | CCC[C@H]1C(=O)N[C@@H]([C@@H](C)CC)C(=O)N(C)CC(=O)N(C)[C@H]2C/C=C\CCN(C2=O)[C@@H](Cc2ccc(C)cc2)C(=O)N(C)CC(=O)N[C@@H](CCc2ccc(CC)c(Cl)c2)C(=O)N2C[C@H](OCC)C[C@H]2C(=O)NC2(CC(C)(C)C2)C(=O)N(C)[C@@H](C2CCCC2)C(=O)N(C)[C@H](C(=O)N(C)C)CC(=O)N1C [PP2778] | A (a compound having 10 or more and less than 20 is denoted as A) | A (a compound having 10 or more and less than 20 is denoted as A) | – |
| 48.6 | CCO[C@@H]1C[C@H]2C(=O)NC3(CCC3)C(=O)N(C)[C@@H](C3CCCC3)C(=O)N(C)[C@H](C(=O)N(C)C)CC(=O)N(C)[C@@H](CC3CCCC3)C(=O)N[C@@H]([C@@H](C)CC)C(=O)N(C)CC(=O)N(C)[C@H]3C/C=C\CCN(C3=O)[C@@H](Cc3ccc(C)cc3)C(=O)N(C)CC(=O)N[C@@H](CCc3cc(F)c(CC)c(OC)c3)C(=O)N2C1 [PP2674] | A (a compound having 10 or more and less than 20 is denoted as A) | A (a compound having 10 or more and less than 20 is denoted as A) | – |
| 86.2 | CCO[C@@H]1C[C@H]2C(=O)NC3(CCCC3)C(=O)N(C)[C@@H](C3CCCC3)C(=O)N(C)[C@H](C(=O)N(C)C)CC(=O)N(C)[C@@H](CC(C)C)C(=O)N[C@@H]([C@@H](C)CC)C(=O)N(C)CC(=O)N(C)[C@H]3CC(C)=CCN(C3=O)[C@@H](Cc3ccc(C(F)(F)F)cc3)C(=O)N(C)CC(=O)N[C@@H](CCc3cc(F)c(C(F)(F)F)c(F)c3)C(=O)N2C1 [PP1031] | C (A compound having a KD ratio of 0.1 or more and less than 3 is denoted as C) | C (A compound having a KD ratio of 0.1 or more and less than 3 is denoted as C) | – |
| 8 | CCCN1C(=O)[C@@H]2CCN2C(=O)[C@H](C)N(C)C(=O)[C@H]([C@@H](C)CC)NC(=O)[C@H](CC(C)C)N(C)C(=O)C[C@@H](C(=O)N(C)C)N(C)C(=O)[C@H](C(CC)CC)N(C)C(=O)C2(CCC2)NC(=O)[C@@H]2CCCN2C(=O)[C@H](CCc2ccc(C(F)(F)F)c(Cl)c2)NC(=O)CN(C)C(=O)[C@@H]1Cc1ccc(C(F)(F)F)cc1 [PP1961] ([NMeL]I[NMeA][Aze][NPrPhe(4-CF3)][Sar][hPhe(3-Cl-4-CF3)]P[Ac4c][NMeNva(3-Et)][NMeD]-NMe2; lactam N-11) | – | – | NRAS /KRAS [1, 5]: C (A compound having a KD ratio of 0.1 or more and less than 3 is denoted as C); HRAS /KRAS (HRAS wild-type protein; [6]): C (A compound having a KD ratio of 0.1 or more and less than 3 is denoted as C) |
| 3.6 | CCCN(C)C(=O)[C@@H]1CC(=O)N(C)[C@@H](CC(F)F)C(=O)N[C@@H]([C@@H](C)CC)C(=O)N(C)CC(=O)N(C)[C@H]2C/C=C\CCN(C2=O)[C@@H](Cc2ccc(C(F)(F)F)cc2)C(=O)N(C)CC(=O)N[C@@H](CCc2cc(F)c(C(F)(F)F)c(F)c2)C(=O)N2C[C@H](OCC)C[C@H]2C(=O)NC2(CCC2)C(=O)N(C)[C@@H](C2CCCC2)C(=O)N1C [PP1700] | – | – | NRAS /KRAS ([1]; ratio of KD value for GDP-bound NRAS wild-type protein to KD value for KRAS (SPR)): A (a compound having 10 or more and less than 20 is denoted as A); HRAS /KRAS (HRAS wild-type protein; ratio of KD value for HRAS wild-type protein to KD value for KRAS (SPR)): A (a compound having 10 or more and less than 20 is denoted as A) |
| 968 | CCO[C@@H]1C[C@H]2C(=O)NC3(CCC3)C(=O)N(C)[C@@H](C3CCCC3)C(=O)N(C)[C@H](C(=O)N(C)C)CC(=O)N(C)[C@@H](CC)C(=O)N[C@@H]([C@@H](C)CC)C(=O)N(C)CC(=O)N(C)[C@H]3CC/C=C(/C)CN(C3=O)[C@@H](Cc3ccc(C(F)(F)F)cc3)C(=O)N(C)CC(=O)N[C@@H](CCc3cc(F)c(C(F)(F)F)c(F)c3)C(=O)N2C1 [PP1334] | – | – | NRAS /KRAS ([1]; ratio of KD with respect to GDP-bound NRAS wild-type protein to KD with respect to KRAS): B (a compound having 3 or more and less than 10 is denoted as B); HRAS /KRAS (HRAS wild-type protein; ratio of KD with respect to HRAS wild-type protein to KD with respect to KRAS): B (a compound having 3 or more and less than 10 is denoted as B) |
| 42.4 | CC[C@H](C)[C@@H]1NC(=O)[C@H](CC(C)C)N(C)C(=O)C[C@@H](C(=O)N2CCOCC2)N(C)C(=O)[C@H](C2CCCC2)N(C)C(=O)C2(CCCC2)NC(=O)[C@@H]2CCCN2C(=O)[C@H](CCc2ccc(C(F)(F)F)c(Cl)c2)NC(=O)CN(C)C(=O)[C@H](Cc2ccc(Cl)cc2)N2CCCCC[C@@H](C2=O)N(C)C(=O)CN(C)C1=O [PP0613] | – | – | NRAS /KRAS [1, 5]: B (a compound having 3 or more and less than 10 is denoted as B); HRAS /KRAS (HRAS wild-type protein; [6]): B (a compound having 3 or more and less than 10 is denoted as B) |
| 15.8 | CCO[C@@H]1C[C@H]2C(=O)NC3(CCC3)C(=O)N(C)[C@@H](C3CCCC3)C(=O)N(C)[C@H](C(=O)N3CCOCC3)CC(=O)N(C)[C@@H](CC)C(=O)N[C@@H]([C@@H](C)CC)C(=O)N(C)CC(=O)N(C)[C@H]3C/C=C\CCN(C3=O)[C@@H](Cc3ccc(C(F)(F)F)cc3)C(=O)N(C)CC(=O)N[C@@H](CCc3cc(F)c(C(F)(F)F)c(F)c3)C(=O)N2C1 [PP1092] | A (a compound having 10 or more and less than 20 is denoted as A) | A (a compound having 10 or more and less than 20 is denoted as A) | – |
| 0.8 | CCCO[C@@H]1C[C@H]2C(=O)NC3(CC(C)(C)C3)C(=O)N(C)[C@@H](C3CCCC3)C(=O)N(C)[C@H](C(=O)N(C)C)CC(=O)N(C)[C@H]3CCCCc4ccc(cc4)C[C@@H](C(=O)N(C)CC(=O)N[C@@H](CCc4ccc(C(F)(F)F)c(OC)c4)C(=O)N2C1)N1CC/C=C\C[C@@H](C1=O)N(C)C(=O)CN(C)C(=O)[C@H]([C@@H](C)CC)NC3=O [PP3077] | A (a compound having 10 or more and less than 20 is denoted as A) | B (a compound having 3 or more and less than 10 is denoted as B) | – |
| 29.1 | CC[C@H](C)[C@@H]1NC(=O)[C@H](CC(C)C)N(C)C(=O)C[C@@H](C(=O)N2CCOCC2)N(C)C(=O)[C@H](C2CCCC2)N(C)C(=O)C2(CCC2)NC(=O)[C@@H]2C[C@@H](OC)CN2C(=O)[C@H](CCc2cc(F)c(C(F)(F)F)c(F)c2)NC(=O)CN(C)C(=O)[C@H](Cc2ccc(C(F)(F)F)cc2)N2CCCC[C@@H](C2=O)N(C)C(=O)CN(C)C1=O [PP1003] | C (A compound having a KD ratio of 0.1 or more and less than 3 is denoted as C) | B (a compound having 3 or more and less than 10 is denoted as B) | – |

| Compound | IC50 [2] [nM] | NRAS /KRAS [1, 3] | HRAS /KRAS (HRAS wild-type protein; [4]) | further results |
| --- | --- | --- | --- | --- |
| CCC[C@H]1C(=O)N[C@@H]([C@@H](C)CC)C(=O)N(C)CC(=O)N(C)[C@H]2C/C=C\CCN(C2=O)[C@@H](Cc2ccc(C(F)(F)F)cc2)C(=O)N(C)CC(=O)N[C@@H](CCc2ccc(C(F)(F)F)c(CC)c2)C(=O)N2C[C@H](OCC)C[C@H]2C(=O)NC2(CC(C)(C)C2)C(=O)N(C)[C@@H](C2CCCC2)C(=O)N(C)[C@H](C(=O)N(C)C)CC(=O)N1C [PP2861] | 6.3 | A (a compound having 10 or more and less than 20 is denoted as A) | B (a compound having 3 or more and less than 10 is denoted as B) | – |
| CCO[C@@H]1C[C@H]2C(=O)NC3(CC(C)(C)C3)C(=O)N(C)[C@@H](C3CCCC3)C(=O)N(C)[C@H](C(=O)N(C)C)CC(=O)N(C)[C@@H](CC(C)C)C(=O)N[C@@H]([C@@H](C)CC)C(=O)N(C)CC(=O)N(C)[C@H]3C/C=C\CCN(C3=O)[C@@H](Cc3ccc(C(C)=O)cc3)C(=O)N(C)CC(=O)N[C@@H](CCc3ccc(C(F)(F)F)c(OC)c3)C(=O)N2C1 [PP2694] | 12 | A (a compound having 10 or more and less than 20 is denoted as A) | B (a compound having 3 or more and less than 10 is denoted as B) | – |
